ChEMBL document CHEMBL4219183, “Novel purine benzimidazoles as antimicrobial agents by regulating ROS generation and targeting clinically resistant Staphylococcus aureus DNA groove” (Bioorg Med Chem Lett, 2018)
Converted amounts (≈) assume the structure as drawn.

Columns and labels:
Type in all cases: functional
[1] = test system: Staphylococcus aureus; experiment: Antibacterial activity against methicillin-resistant Staphylococcus aureus N315 after 24 hrs by two fold serial dilution method; settings: N315, 24 h
[2] = test system: Enterococcus faecalis; experiment: Antibacterial activity against Enterococcus faecalis after 24 hrs by two fold serial dilution method
[3] = test system: Staphylococcus aureus; experiment: Antibacterial activity against Staphylococcus aureus after 24 hrs by two fold serial dilution method
[4] = test system: Staphylococcus aureus; experiment: Antibacterial activity against Staphylococcus aureus ATCC 25923 after 24 hrs by two fold serial dilution method; settings: ATCC 25923, 24 h
[5] = test system: Staphylococcus aureus; experiment: Antibacterial activity against Staphylococcus aureus ATCC 29213 after 24 hrs by two fold serial dilution method; settings: ATCC 29213, 24 h
[6] = test system: Klebsiella pneumoniae; experiment: Antibacterial activity against Klebsiella pneumoniae after 24 hrs by two fold serial dilution method
[7] = test system: Escherichia coli; experiment: Antibacterial activity against Escherichia coli after 24 hrs by two fold serial dilution method
[8] = test system: Pseudomonas aeruginosa; experiment: Antibacterial activity against Pseudomonas aeruginosa after 24 hrs by two fold serial dilution method
[9] = test system: Acinetobacter baumannii; experiment: Antibacterial activity against Acinetobacter baumannii after 24 hrs by two fold serial dilution method
[10] = test system: Pseudomonas aeruginosa; experiment: Antibacterial activity against Pseudomonas aeruginosa ATCC 27853 after 24 hrs by two fold serial dilution method; settings: ATCC 27853, 24 h
[11] = test system: Escherichia coli; experiment: Antibacterial activity against Escherichia coli ATCC 25922 after 24 hrs by two fold serial dilution method; settings: ATCC 25922, 24 h
[12] = test system: Candida albicans; experiment: Antifungal activity against Candida albicans after 24 hrs by two fold serial dilution method
[13] = test system: Candida tropicalis; experiment: Antifungal activity against Candida tropicalis after 24 hrs by two fold serial dilution method
[14] = test system: Aspergillus fumigatus; experiment: Antifungal activity against Aspergillus fumigatus after 24 hrs by two fold serial dilution method
[15] = test system: Candida albicans; experiment: Antifungal activity against Candida albicans ATCC 90023 after 24 hrs by two fold serial dilution method; settings: ATCC 90023, 24 h
[16] = test system: Candida parapsilosis; experiment: Antifungal activity against Candida parapsilosis ATCC 22019 after 24 hrs by two fold serial dilution method; settings: ATCC 22019, 24 h

SMILES	MIC [1] [µg/mL]	MIC [2] [µg/mL]	MIC [3] [µg/mL]	MIC [4] [µg/mL]	MIC [5] [µg/mL]	MIC [6] [µg/mL]	MIC [7] [µg/mL]	MIC [8] [µg/mL]	MIC [9] [µg/mL]	MIC [10] [µg/mL]	MIC [11] [µg/mL]	MIC80 [12] [µg/mL]	MIC80 [13] [µg/mL]	MIC80 [14] [µg/mL]	MIC80 [15] [µg/mL]	MIC80 [16] [µg/mL]
Clc1ccccc1Cn1c(Cn2cnc3c(N4CCOCC4)ncnc32)nc2ccccc21	512 (≈ 1110 µM)	256 (≈ 557 µM)	256 (≈ 557 µM)	256 (≈ 557 µM)	32 (≈ 69.6 µM)	64 (≈ 139 µM)	128 (≈ 278 µM)	128 (≈ 278 µM)	256 (≈ 557 µM)	64 (≈ 139 µM)	256 (≈ 557 µM)	256 (≈ 557 µM)	256 (≈ 557 µM)	256 (≈ 557 µM)	256 (≈ 557 µM)	256 (≈ 557 µM)
CCCCCCn1c(Cn2cnc3c(N4CCCC4)ncnc32)nc2ccccc21	64 (≈ 159 µM)	256 (≈ 634 µM)	32 (≈ 79.3 µM)	64 (≈ 159 µM)	512 (≈ 1270 µM)	128 (≈ 317 µM)	256 (≈ 634 µM)	128 (≈ 317 µM)	64 (≈ 159 µM)	256 (≈ 634 µM)	16 (≈ 39.6 µM)	64 (≈ 159 µM)	128 (≈ 317 µM)	128 (≈ 317 µM)	32 (≈ 79.3 µM)	32 (≈ 79.3 µM)
Cc1nc2ccccc2n1CCn1cnc2c(N3CCOCC3)ncnc21	512 (≈ 1410 µM)	256 (≈ 704 µM)	256 (≈ 704 µM)	32 (≈ 88.1 µM)	128 (≈ 352 µM)	256 (≈ 704 µM)	512 (≈ 1410 µM)	256 (≈ 704 µM)	256 (≈ 704 µM)	256 (≈ 704 µM)	256 (≈ 704 µM)	128 (≈ 352 µM)	256 (≈ 704 µM)	256 (≈ 704 µM)	128 (≈ 352 µM)	512 (≈ 1410 µM)
C=CCn1c(Cn2cnc3c(N4CCOCC4)ncnc32)nc2ccccc21	512 (≈ 1360 µM)	128 (≈ 341 µM)	256 (≈ 682 µM)	256 (≈ 682 µM)	128 (≈ 341 µM)	128 (≈ 341 µM)	256 (≈ 682 µM)	256 (≈ 682 µM)	128 (≈ 341 µM)	128 (≈ 341 µM)	256 (≈ 682 µM)	512 (≈ 1360 µM)	256 (≈ 682 µM)	128 (≈ 341 µM)	128 (≈ 341 µM)	32 (≈ 85.2 µM)
c1nc(N2CCCCC2)c2nc[nH]c2n1	512 (≈ 2520 µM)	256 (≈ 1260 µM)	32 (≈ 157 µM)	512 (≈ 2520 µM)	512 (≈ 2520 µM)	256 (≈ 1260 µM)	256 (≈ 1260 µM)	256 (≈ 1260 µM)	128 (≈ 630 µM)	64 (≈ 315 µM)	256 (≈ 1260 µM)	128 (≈ 630 µM)	256 (≈ 1260 µM)	64 (≈ 315 µM)	128 (≈ 630 µM)	512 (≈ 2520 µM)
OC(Cn1cncn1)(Cn1cncn1)c1ccc(F)cc1F [FLUCONAZOLE]												64 (≈ 209 µM)	256 (≈ 836 µM)	256 (≈ 836 µM)	1 (≈ 3.27 µM)	2 (≈ 6.53 µM)
